Laboratory results reported in PMC4491869, “Antimicrobial activity of synthetic cationic peptides and lipopeptides derived from human lactoferricin against Pseudomonas aeruginosa planktonic cultures and biofilms” (BMC Microbiology, 2015).
Values after ≈ are worked out from the molar mass of the structure shown. Where a SMILES comes first, the peptide text is derived from it. The star is where a group is joined. Butanoyl(2,2-Me2) = CCC(C)(C)C(=O)*; Octanoyl(6-Me) = CCC(C)CCCCC(=O)*

How the values were obtained:
[1] = test system: P. aeruginosa PAO1; experiment: Time-kill curves (T3log); format: cell-based, Pseudomonas aeruginosa; conditions: MH, 37 °C with shaking, sampling 15 min to 6 h
Experimental: Time-kill studies were determined with glass tubes containing 10 ml of MH and different concentrations of the peptides (1, 2 and 4 times their MIC). Overnight cultures of P. aeruginosa PAO1 in TSB were adjusted at 5 × 10^7 CFU/ml turbidimetrically. This […] suspension was diluted in the MH tubes (1:50) for the time-kill assay. Tubes were incubated at 37 °C with shaking and samples were taken at the following time points after the beginning of incubation: 15 min, 30 min, 45 min, 1 h, 2 h, 4 h and 6 h. Each sample was serially diluted and plated. The lower limit of detection was 30 CFU/ml (1.5 × log10 CFU/ml).
To quantify the killing efficiency of the treatments, the parameter T3log (defined as the time required for the treatment to decrease 3 logs the initial inoculum) was used.

[2] = test system: Pseudomonas aeruginosa PAO1 planktonic cells; format: cell-based; conditions: PAO1, 24 h
Experimental: Minimal inhibitory concentrations (MIC) of the peptides were determined in Mueller Hinton (MH) medium (Difco Laboratories, Detroit, MI, USA) by the broth microdilution assay following recommendations of the Clinical and Laboratory Standards Institute (CLSI, formerly NCCLS) with some modifications. Minimum bactericidal concentration (MBC) was defined as the concentration that caused a 3-log viability decrease in the initial inoculum and was calculated by colony counts on TSA plates incubated for 24 h at 37 °C.

[3] = test system: S. aureus; experiment: MIC against S. aureus; format: cell-based; conditions: data not shown
[4] = test system: HeLa cells; experiment: Cytotoxicity assay (MTT); format: cell-based
Experimental: Cytotoxicity was assayed on HeLa cells using the MTT [3-(4,5-dimethylthiazoyl-2-yl) 2,5 diphenyltetrazolium bromide protocol. Cells were grown in Dulbeccos’s modified Eagle’s medium (DMEM) and adjusted to a concentration of 10^5 cells/ml (MTT) in 96 wells polystyrene plates. Plates were incubated for 24 h at 37 °C in 5 % CO2, then supplemented with increasing amounts of peptides diluted in 2 mM Hepes pH 7.2, and incubation carried on for 24 h under the same conditions. After this time, filter-sterilized MTT was added in different plates. After 3 h, the content of the wells was gently solved and mixed with 100 μl of DMSO (MTT). Absorbance was measured at 540 nm. Compound cytotoxicity was expressed as LC50, the concentration of the compound that is lethal to 50 % of the cells.

[5] = test system: P. aeruginosa PAO1 pMF230 biofilm; experiment: CDC-reactor biofilm assay, fluorescence microscopy (GFP/PI); format: cell-based, Pseudomonas aeruginosa; conditions: 10XMIC, 60 min, CDC-reactor coupons; compared with 24 h microplate assay
Experimental: (§1) Briefly, 1 ml of an overnight culture of P. aeruginosa PAO1 pMF230 was inoculated into 350 ml of TSB and this suspension was used to fill the reactor chamber. After 24 h of growth in batch culture at 37 °C with magnetic agitation, a continuous flow of TSB (3 g/l) was applied to the reactor chamber at a rate of 11 ml/min. Under these conditions, a dense biofilm develops on the surface of small disks called coupons that are constantly bathed in fresh culture medium. After 24 h incubation, the coupons were removed from the chamber and planktonic cells were eliminated by rinsing the coupons with saline. […]
(§2) For the microscopic assessment of anti-biofilm activity, biofilms grown and treated on coupons as detailed above were soaked in a 120 μM solution of propidium iodide (PI, live/dead® Baclight™ bacterial viability kit, Invitrogen, Carlsbad, CA, USA) in filter-sterilized distilled water and incubated for 15 min at room temperature. Then, coupons were rinsed in filter-sterilized distilled water and their surface was examined by fluorescence microscopy using FITC filter (green fluorescence: λexcitation, 499 nm; λemission, 519 nm) and TRITC filter (red fluorescence: λexcitation, 552 nm; λemission, 578 nm). […] Microscope images were analyzed with the software Imaris® × 64 5.7.2. […]

[6] = test system: P. aeruginosa PAO1 biofilms; format: cell-based, Pseudomonas aeruginosa; conditions: 10XMIC, 24 h at 37 °C, biofilms grown in microplates (static conditions)
Experimental: In the microplate based assay, biofilms were grown with no fluid shear and the anti-biofilm activity of peptides was assessed as previously described with some modifications. Briefly, overnight cultures of P. aeruginosa PAO1 in TSB were adjusted at 5 × 10^7 CFU/ml turbidimetrically. This suspension was diluted in TSB (1:100) and 100 μl aliquots were added to the wells of a 96-well plate. After 24 h incubation at 37 °C, planktonic bacteria were removed by gently inverting the plate and then the biofilm-containing wells were washed with saline (0.85 % NaCl). The antimicrobial compound was serially diluted in Mueller Hinton (MH) at final concentrations higher than its planktonic MIC and 200 μl of each dilution was added to the wells. After 24 h incubation at 37 °C, biofilms were stained with either MTT (Sigma, St. Louis, MO, USA) or crystal violet (CV). As control, duplicate biofilms were incubated with MH containing no antimicrobial.
To quantify the disinfection (or bactericidal) activity of the antimicrobials on the biofilms, the MTT assay was used and performed as follows. After the treatment, the biofilms were rinsed with saline and 200 μl of a 0.5 mg/ml dilution of MTT in MH, was added to the wells. Incubation of biofilm with MTT was carried out during 4 h at 37 °C with no shaking. As a measure of cell viability, the conversion of MTT to a […] was determined by solubilizing the salt in 100 μl/well of DMSO and reading the absorbance of the resulting solution at 540 nm.
Both the disinfection and removal activity of antimicrobials were expressed as “activity percentage”, a parameter that was calculated using the following formula: ActivityPercentage=C−B−T−B/C−B×100
Where C is the absorbance value of the control well with non-treated biofilm, T corresponds to the absorbance value of the well with treated biofilm and B is the blank well (i.e. with no biofilm).

[7] = test system: P. aeruginosa PAO1 pMF230 biofilm; experiment: CDC-reactor biofilm assay, confocal laser scanning microscopy (GFP/PI); format: cell-based, Pseudomonas aeruginosa; conditions: 10XMIC, 60 min, CLSM, determined by volume
Experimental: as §1, §2

Row | SMILES | T3log at 1X MIC (time needed to decrease 3 logs the initial inoculum) [1] [minutes] | T3log at 2X MIC (time needed to decrease 3 logs the initial inoculum) [1] [minutes] | T3log at 4X MIC (time needed to decrease 3 logs the initial inoculum) [1] [minutes] | MBC (minimal bactericidal concentration) [2] [µg/mL] | MIC (minimal inhibitory concentration) [2] [µg/mL] | MIC against S. aureus compared with non-acylated counterpart [3] | LC50 expressed as multiple of the MIC [4] [XMIC] | LC50 (concentration lethal to 50 % of the cells) ([4]; HeLa cells, 24 h, MTT) [µg/mL] | Anti-biofilm activity under static and dynamic conditions (fluorescence microscopy) [5] | Disinfection activity (biofilm-forming bacteria killed, MTT test) [6] | Percentage of dead (red) cells in the biofilm volume [7] [%]
1 | CCC(C)CCCCC(=O)N[C@@H](Cc1ccccc1)C(=O)N[C@@H](Cc1c[nH]c2ccccc12)C(=O)N[C@@H](CCCNC(=N)N)C(=O)N[C@@H](CCCNC(=N)N)C(=O)N[C@@H](Cc1ccccc1)C(=O)N[C@@H](Cc1c[nH]c2ccccc12)C(=O)N[C@@H](CCCNC(=N)N)C(=O)N[C@@H](CCCNC(=N)N)C(N)=O (stereo partly shown) [6-MO-LF11-227] ({Octanoyl(6-Me)}-FWRRFWRR-NH2) | 10 | 10 | 10 | 128 (≈ 88.3 µM) | 128 (≈ 88.3 µM) | eight times lower |  |  |  |  | 
2 | CC[C@H](C)[C@H](NC(=O)[C@H](CCCNC(=N)N)NC(=O)[C@@H](NC(=O)[C@H](CCCNC(=N)N)NC(=O)[C@H](Cc1c[nH]c2ccccc12)NC(=O)[C@H](Cc1ccccc1)NC(=O)[C@@H]1CCCN1C(=O)C(C)(C)CC)[C@@H](C)CC)C(=O)N[C@@H](CCCNC(=N)N)C(=O)N[C@@H](CCCNC(=N)N)C(N)=O [DI-MB-LF11-322, 2,2-dimethylbutanoyl-PFWRIRIRR] ({Butanoyl(2,2-Me2)}-PFWRIRIRR-NH2) | 12 | 11 | 10 | 32 (≈ 22.9 µM) | 32 (≈ 22.9 µM) |  | ~2 | 80 | potent anti-biofilm activity | medium-range disinfection activity | 99.81
